Reference: article PMC12643063, “Mechanistic basis for inhibition of the extended‐spectrum β‐lactamase GES‐1 by enmetazobactam and tazobactam” (Febs Letters, 2025)
pIC50: −log10 of the molar value.

Tests used:
[1] = molecular target: T1, GES-1 (Guiana extended-spectrum β-lactamase 1) (Klebsiella pneumoniae, UniProt Q9KJY7); assay: ([…] Å), mass spectrometry; IC50 by nitrocefin hydrolysis, […] min pre-incubation; type: biochemical
T1 construct: pOPIN-F, expressed in SoluBL21 (DE3) E. coli

[2] = molecular target: T1, GES-1 (Guiana extended-spectrum β-lactamase 1); assay: ([…] Å; […] Da aldehyde fragment on Ser70), mass spectrometry; IC50 by nitrocefin hydrolysis, […] min pre-incubation; type: biochemical

T1 sequence (Q9KJY7 18-287): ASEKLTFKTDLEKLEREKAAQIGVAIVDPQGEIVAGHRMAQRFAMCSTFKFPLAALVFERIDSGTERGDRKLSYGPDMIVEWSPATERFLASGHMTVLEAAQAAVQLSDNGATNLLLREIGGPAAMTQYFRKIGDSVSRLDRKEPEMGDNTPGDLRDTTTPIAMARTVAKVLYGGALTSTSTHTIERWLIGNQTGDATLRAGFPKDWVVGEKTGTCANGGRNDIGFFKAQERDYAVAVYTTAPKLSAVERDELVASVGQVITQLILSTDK

Structure (SMILES)	pIC50 [1]	pIC50 [2]
C[n+]1ccn(C[C@@]2(C)[C@H](C(=O)O)N3C(=O)C[C@H]3S2(=O)=O)n1 [enmetazobactam]	6.97	
C[C@]1(Cn2ccnn2)[C@H](C(=O)O)N2C(=O)C[C@H]2S1(=O)=O [tazobactam]		6.35
